PubChem BioAssay AID1361 (SRMLSC, 2008)
Active and inactive are the calls of the source. No rule for the calls is given here.

Test: mitochondrial fusion inhibitors, confirmation, cell-based, chemical genetic, wild-type and mutant (AID 1361)
Conditions: Cell-based mitochondrial fusion phenotype, imaging
[1] = mutant cells, measured here: mutant cell line IC50

Structure (SMILES) | IC50 (WT cells) | IC50 [1] [µM]
Cc1ccc(C2=NN(S(=O)(=O)c3ccccc3)C(c3ccccc3O)C2)cc1 (stereo not drawn) | 3.89 µM | 24.4
O=C(CCN1C(=O)/C(=C/c2cccs2)SC1=S)NC1=NCCS1 | 12.5 µM | > 25
O=C(c1cc(-c2ccccc2)nc2ccccc12)N1CCCc2ccccc21 | 13.7 µM | > 25
CC(C)c1ccc(OCC(O)Cn2cnc3ccccc32)cc1 (stereo not drawn) | > 25 µM (inactive) | > 25
Cc1ccc(Nc2nc(N)c([N+](=O)[O-])c(NCc3ccco3)n2)cc1C | 15.5 µM | > 25
CS(=O)(=O)N(Cc1cc2ccccc2[nH]c1=O)C1CCCCC1 | > 25 µM (inactive) | > 25
CC1CCN(S(=O)(=O)c2ccc(Oc3ccc([N+](=O)[O-])cc3)cc2)CC1 | > 25 µM (inactive) | > 25
CC1(C)CC(=O)c2c(O)cc(OCc3ccc([N+](=O)[O-])cc3)cc2O1 | > 25 µM (inactive) | > 25
Cc1ccc(C(C(=O)NCC2CCCO2)N(Cc2ccccc2)C(=O)c2ccc(-c3ccccc3)[nH]2)o1 (stereo not drawn) | 10.9 µM | > 25
CCn1cc(C(=O)OCC(=O)c2cc(C)n(-c3cccc(C(F)(F)F)c3)c2C)c(=O)c2ccc(C)nc21 | 11.1 µM | > 25
CCOC(=O)c1oc2cccc(OCC(O)CNC(C)C)c2c1C (stereo not drawn) | > 25 µM (inactive) | > 25
CCc1ccc(-c2nn(-c3ccccc3)cc2CSC(=N)N)cc1 | > 25 µM (inactive) | > 25
CCOC(=O)N1CCC(NC(=O)c2cc(-c3ccc(F)cc3)[nH]c2C)CC1 | > 25 µM (inactive) | > 25
Cc1cc(Cl)ccc1OCC(=O)Nc1nc(-c2cccs2)cs1 | 13.4 µM (inactive) | 9.8
O=C(N/N=C/c1cccc(F)c1)c1cc(-c2ccco2)nc2ccccc12 | > 25 µM (inactive) | > 25
CC(C)(C)c1ccc(CSc2nnc(-c3ccccn3)n2Cc2ccco2)cc1 | 17.6 µM | > 25
CC(c1ccccc1)N(CCC(c1ccccc1)C1CCOC(C)(C)C1)C(=O)c1ccco1 (stereo not drawn) | 19.2 µM | > 25
CC(=O)Oc1ccccc1N(C(C)=O)S(=O)(=O)c1ccc2ccccc2c1 | > 25 µM (inactive) | > 25
COC(=O)c1c(N)n(Cc2ccc(OC)cc2)c2nc3ccccc3nc12 | > 25 µM (inactive) | > 25
COc1ccc(NC(=S)N(CCc2c(C)[nH]c3ccc(C)cc23)Cc2ccco2)cc1 | 8.8 µM | > 25
Cc1c(N2C(=O)c3cccc4cccc(c34)C2=O)c(=O)n(-c2ccccc2)n1C | > 25 µM (inactive) | > 25
CC(=O)Nc1ccc(S(=O)(=O)N2CCN(C)CC2)cc1 | > 25 µM (inactive) | > 25
O=C(C1=C[C@H](c2csc3ccccc23)C[C@H](OCc2ccc(CO)cc2)O1)N1CCN(Cc2ccc3c(c2)OCO3)CC1 | 2.16 µM | 10.5
CC1(C)C=C2[C@H]3CC[C@@H]4[C@@]5(C)CCC(=O)C(C)(C)[C@@H]5CC[C@@]4(C)[C@]3(C)CC[C@@]2(C(=O)O)CC1 | 21.9 µM | > 25
CCCOc1ccc(Cc2c(Cl)nc(SC)nc2N(C)C)cc1 | 9.94 µM | > 25
O=C(CSCC(=O)OCn1nnc2ccccc2c1=O)Nc1ccc(Cl)cc1 | > 25 µM (inactive) | > 25
Cc1nc(NC2=NCN(C3CCCCC3C)CN2)nc2ccccc12 (stereo not drawn) | > 25 µM (inactive) | > 25

Structure (SMILES) | IC50 (WT cells) | IC50 [1] [µM]
COc1cc(/C=N/N=C(/C(=O)c2ccccc2)c2ccccc2)cc(OC)c1O | 16.5 µM | > 25
Clc1ccc(Cn2c(/C=C/c3ccco3)nc3ccccc32)cc1 | 12.6 µM | > 25
Cc1ccc(-n2cccc2/C=C2\C(=N)N3N=C(C(C)C)SC3=NC2=O)cc1 | 10.6 µM | > 25
COc1cc(CNn2cn[nH]c2=S)cc(Br)c1OCc1ccccc1F | 19.7 µM | > 25
Cc1cccc(N2CCN(C(=O)COc3ccc4c(c3)CCC4)CC2)c1C | 14.8 µM | > 25
COC(=O)c1ccc(NCC(=O)c2ccccc2)cc1 | > 25 µM (inactive) | > 25
COc1ccc(CCNS(=O)(=O)c2ccc(OC)cc2)cc1 | > 25 µM (inactive) | > 25
Cc1ccc(-c2cc(C(F)F)n3ncc(C(=O)N4CCN5CCCC5C4)c3n2)cc1 (stereo not drawn) | > 25 µM (inactive) | > 25
COc1ccc(-c2noc(-c3ccccc3-c3ccccc3)n2)cc1OC | > 25 µM (inactive) | > 25
CCOc1ccc(NC(=S)N(CCc2c(C)[nH]c3ccc(C)cc23)Cc2ccco2)cc1 | 6.2 µM | > 25
CCOC(=O)C1=C(NC(=S)NC(=O)c2ccccc2)c2ccccc2CC1(C)CC (stereo not drawn) | 7.33 µM | > 25
Cc1nc(=O)c(-c2ccccc2)c(C)n1CCCCCC(=O)O | > 25 µM (inactive) | > 25
CCCC[C@@H]1C[C@H]1[C@@H](NC(=O)c1ccco1)c1ccc(Cl)cc1 | 21.4 µM | > 25
CCOC(=O)N1CCN(S(=O)(=O)c2ccc(C)c(C)c2)CC1 | > 25 µM (inactive) | > 25
CCCc1cc(-c2nc(N)ncc2-c2ccc3c(c2)OCCCO3)c(O)cc1OC | 14 µM | > 25
COC(=O)C1CCN(C(=O)c2cc(OC)c(OC)c(OC)c2)CC1 | > 25 µM (inactive) | > 25
CCOc1ccc(OCC)c(S(=O)(=O)NCCOC23CC4CC(CC(C4)C2)C3)c1 | > 25 µM (inactive) | > 25
COc1ccc(NC(=O)c2csc(Cc3ccc(Cl)cc3)n2)cc1 | 16 µM | 24.4
COc1ccc(OC)c(NC(=O)COC(=O)Cc2ccc(Br)cc2)c1 | > 25 µM (inactive) | > 25
COc1cc2[nH]c(=O)n(CCC(=O)N3CCN(c4cccc(C)c4C)CC3)c(=O)c2cc1OC | > 25 µM (inactive) | > 25
COC(=O)c1ccc(NC(=O)Nc2ccc(F)c(Cl)c2)cc1 | 19.4 µM | > 25
O=C(Nc1ccc(F)cc1)N1CC2CC(C1)c1cccc(=O)n1C2 (stereo not drawn) | > 25 µM (inactive) | > 25
CNC(=S)NCCC(c1ccccc1)c1ccccc1 | > 25 µM (inactive) | > 25
Cc1ccc(NC(=O)CCC(=O)OCC(=O)c2ccc(Oc3ccc([N+](=O)[O-])cc3)cc2)cc1C | > 25 µM (inactive) | > 25
CC(C)Oc1ccc(C(=O)NC2(C(F)(F)F)NC(=O)N(CCCc3ccccc3)C2=O)cc1 (stereo not drawn) | 20.2 µM | > 25
O=C(N/N=C/C=C/c1ccccc1)C1CC1c1ccccc1 (stereo not drawn) | > 25 µM (inactive) | > 25
O=C(c1ccc2c(c1)OCO2)N(Cc1cccs1)C1(C(=O)NC2CCCCC2)CCCCC1 | > 25 µM (inactive) | > 25

Structure (SMILES) | IC50 (WT cells) | IC50 [1] [µM]
CCNc1nc(SCCOc2ccc(Cl)cc2Cl)nc(N(C)C)n1 | 8.3 µM | 23.8
CC(C)N(C(=S)NC1CC2CCC1C2)c1ccccc1 (stereo not drawn) | 25 µM (inactive) | > 25
COc1ccc(NC(=O)c2ccc(-c3ccccc3C(F)(F)F)o2)cc1 | 16.4 µM | 21.7
COCCN(C(=S)Nc1ccc(C(C)C)cc1)C(C)c1cccs1 (stereo not drawn) | > 25 µM (inactive) | > 25
O=C(CCn1nnc2ccccc21)Nc1nnc(Cc2ccccc2)s1 | > 25 µM (inactive) | > 25
c1ccc(N(c2ccccc2)c2nc(N3CCCC3)nc(-n3ccnc3)n2)cc1 | 15.5 µM | > 25
O=C(COC(=O)CCCOc1ccc(Cl)cc1Cl)Nc1cccc(Cl)c1 | 24 µM (inactive) | 22.8
Cc1ccc(C(C(=O)NC2CCCCC2)N(Cc2ccco2)C(=O)Cc2c[nH]c3ccccc23)o1 (stereo not drawn) | 21.2 µM | > 25
COc1cccc(-c2ccc(C#N)c(OC(=O)c3c(Cl)cccc3Cl)n2)c1 | > 25 µM (inactive) | > 25
CCOC(=O)c1c(-c2ccc(OC)cc2)csc1/N=C/C1=C(O)CCCC1=O | > 25 µM (inactive) | > 25
C/C(N)=C(/C#N)C(=O)CSc1nnnn1-c1ccccc1 | > 25 µM (inactive) | > 25
Cc1nc(N2CCC(C)CC2)c2c(C)c(C(=O)Nc3cc(F)ccc3C)sc2n1 | 19.7 µM | > 25
CCC1(C)Cc2c(sc3[nH]c(=S)n(Cc4ccccc4)c(=O)c23)CO1 (stereo not drawn) | 21.2 µM | > 25
N#C[C@H]1[C@H](c2ccccc2)[C@](C#N)(C(=O)c2ccccc2)[C@@H]2C=Cc3ccccc3N21 | > 25 µM (inactive) | > 25
Cc1ccc(S(=O)(=O)c2c(C)nn(C(C)(C)C)c2OC(=O)CC(C)C)cc1 | 22.5 µM | > 25
NNC(=O)c1cc2c(N3CCC(Cc4ccccc4)CC3)ncnc2s1 | 17.6 µM | > 25
COc1ccc(C2CC(=O)c3cnc(Nc4cc(C)cc(C)c4)nc3C2)cc1 (stereo not drawn) | > 25 µM (inactive) | > 25
CC(C)(O)[C@H]1O[C@H]2CC[C@@]3(C)[C@@](O)(CC[C@H]4Cc5c([nH]c6ccccc56)[C@@]43C)C2=CC1=O | 11.2 µM | > 25
COc1ccccc1-n1cnc2sc(-c3ccccc3)cc2c1=O | > 25 µM (inactive) | > 25
Cc1nc(N2CCCCC2)c2c(C)c(C(=O)Nc3ccccc3C(F)(F)F)sc2n1 | > 25 µM (inactive) | > 25
CC1CCCN(c2nc3c(c(=O)[nH]c(=O)n3C)n2Cc2ccccc2Cl)C1 (stereo not drawn) | 17.4 µM | > 25
COc1cc(/C=N/n2cnnc2)ccc1OCc1ccccc1 | > 25 µM (inactive) | > 25
CCOc1ccc(-c2[nH]ncc2Oc2ccccc2OCC)c(O)c1 | > 25 µM (inactive) | > 25
Cc1ccc(-n2cc(CNCCc3cscn3)c(-c3ccc(F)cc3)n2)cc1 | > 25 µM (inactive) | > 25
Cc1cccc2sc(NC(=O)c3ccc(NS(=O)(=O)c4cccs4)cc3)nc12 | > 25 µM (inactive) | > 25
